Reference: paper PMC3596305, “Escherichia coli NemA Is an Efficient Chromate Reductase That Can Be Biologically Immobilized to Provide a Cell Free System for Remediation of Hexavalent Chromium” (PLoS ONE, 2013)

Test system: T1, KefF_Pa
T1 construct: gene kefF
Test: diphenylcarbazide Cr(VI) assay, Lineweaver-Burk
Type: biochemical
Conditions: 1 mM NADH, 50 mM Tris-Cl pH 7.0, 22°C; read-out: KM (μM) ^b
From the text: diphenylcarbazide Cr(VI) assay, Lineweaver-Burk on KefF_Pa

With `[O]=[Cr](=[O])([OH])[OH]` [Cr(VI)] the Km was 140 µM.
